Test results: patent US20240391862A1, “(1,4,5-TRISUBSTITUTED-1H-PYRAZOL-3-YL)OXY-2-ALKOXY ALKYL ACIDS AND THEIR DERIVATIVES, THEIR SALTS AND THEIR USE AS HERBICIDAL AGENTS” (Bayer AKtiengesellschaft, priority 2021, published 2024)

Key:
ABUTH = test: Post-emergence herbicidal effect, greenhouse pot test; type: in vivo, Abutilon theophrasti; conditions: visual rating about 3 weeks after treatment
How it was run: (§1)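 Weeds sown in sandy loam, greenhouse-grown 2–3 weeks, then sprayed at one-leaf stage with WP or EC formulations in water plus 0.5% additive at 600 l/ha. Rates 20 to 320 g/ha. Visual rating after about 3 weeks versus untreated controls (100% = plants dead, 0% = like control).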

ECHCG = test: as above; type: in vivo, Echinochloa crus-galli; conditions: for Post-emergence effect against ECHCG: 20 g/ha, visual rating about 3 weeks after treatment
How it was run: as §1

TRZAS = test: Post-emergence herbicidal effect and crop plant compatibility, greenhouse pot test; type: in vivo, Triticum aestivum; conditions: for Post-emergence effect at 20 g/ha against TRZAS in % / percent crop injury (phytotoxicity) to wheat, post-emergence at 20 g/ha: one-leaf stage, rated visually after about 3 weeks vs untreated controls; for Post-emergence effect against TRZAS: visual rating about 3 weeks after treatment, crop plant; for percent crop injury (phytotoxicity) to wheat, post-emergence at 20 g/ha: Triticum aestivum, 504 h, read-out: Post-emergence effect at 20 g/ha against TRZAS in %
Text: • ALOMY: Alopecurus myosuroides SETVI: Setaria viridis • AVEFA: Avena fatua POLCO: Fallopia convolvulus • AMARE: Amaranthus retroflexus ECHCG: Echinochloa crus-galli • LOLRJ: Lolium rigidum STEME: Stellaria media • VERPE: Veronica persica MATIN: Tripleurospermum inodorum • DIGSA: Digitaria sanguinalis ABUTH: Abutylon threophrasti • TRZAS: Triticum aestivum VIOTR: Viola tricolor • BRSNW: Brassica napus ZEAMX: Zea mays • PHBPU: Ipomoea purpurea GLXMA: Glycine max • ORYSA: Oryza sativa HORMU: Hordeum murinum
Seeds of monocotyledonous and dicotyledonous weeds and crop plants are placed in sandy loam in plastic or organic planting pots, covered with soil and cultivated in a greenhouse under controlled growth conditions. 2 to 3 weeks after sowing, the trial plants are treated at the one-leaf stage. The compounds of the invention, formulated in the form of wettable powders (WP) or as emulsion concentrates (EC), are then sprayed onto the green parts of the plants as aqueous suspension or emulsion with addition of 0.5% additive at a water application rate of 600 l/ha (converted). After the test plants have been kept in the greenhouse under optimum growth conditions for about 3 weeks, the activity of the preparations is rated visually in comparison to untreated controls. For example, 100% activity=the plants have died, 0% activity=like control plants.
Tables 20a to 38c below show the effects/crop compatibilities of selected compounds of the general formula (I) on various harmful plants at an application rate corresponding to 20 to 320 g/ha, which were obtained by the trial procedure specified above.

PHBPU = test: Post-emergence herbicidal effect, greenhouse pot test; type: in vivo, Ipomoea purpurea
How it was run: as §1

MATIN = test: as above; type: in vivo, Tripleurospermum inodorum
How it was run: as §1

VIOTR = test: as above; type: in vivo, Viola tricolor
How it was run: as §1

VERPE = test: as above; type: in vivo, Veronica persica
How it was run: as §1

SETVI = test: as above; type: in vivo, Setaria viridis; conditions: for Post-emergence effect against SETVI in % / pest or weed control at 320 g/ha: 320 g/ha
How it was run: as §1

AMARE = test: as above; type: in vivo, Amaranthus retroflexus; conditions: visual rating about 3 weeks after treatment
How it was run: as §1

AVEFA = test: as above; type: in vivo, Avena fatua; conditions: 320 g/ha, visual rating about 3 weeks after treatment; for pest or weed control at 320 g/ha: Avena fatua, 504 h, read-out: Post-emergence effect against AVEFA
How it was run: as §1

DIGSA = test: as above; type: in vivo, Digitaria sanguinalis; conditions: visual rating about 3 weeks after treatment
How it was run: as §1

ALOMY = test: as above; type: in vivo, Alopecurus myosuroides; conditions: Alopecurus myosuroides, 504 h, 320 g/ha, visual rating about 3 weeks after treatment, read-out: Post-emergence effect against ALOMY
How it was run: as §1

ZEAMX = test: Post-emergence herbicidal effect and crop plant compatibility, greenhouse pot test; type: in vivo, Zea mays; conditions: Zea mays, 504 h, one-leaf stage, rated visually after about 3 weeks vs untreated controls; for plant injury at 20 g/ha: read-out: Post-emergence effect at 20 g/ha against ZEAMX in %; for plant injury at 80 g/ha: read-out: Post-emergence effect at 80 g/ha against ZEAMX in %
How it was run: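 Visual % activity scored roughly 3 weeks post-spray against untreated plants, where 100% means death and 0% equals control. Plants were treated at the one-leaf stage, 2 to 3 weeks after sowing in sandy loam, at 20 to 320 g/ha.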

KCHSC = test: Post-emergence herbicidal effect, greenhouse pot test; type: in vivo; conditions: 504 h, 320 g/ha, read-out: Post-emergence effect against KCHSC in %
How it was run: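 Visual rating of activity against untreated plants (100% = plants died, 0% = no effect), done about 3 weeks after treatment. Compounds applied at 20–320 g/ha as aqueous spray (600 l/ha, 0.5% additive) from WP or EC formulations onto one-leaf-stage plants grown in sandy loam under greenhouse conditions.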

POLCO = test: as above; type: in vivo, Fallopia convolvulus; conditions: Fallopia convolvulus, 504 h, 320 g/ha, read-out: Post-emergence effect against POLCO in %
How it was run: as §1

[1] = Echinochloa crus-galli, 504 h, 320 g/ha, read-out: Post-emergence effect against ECHCG in %
[2] = Ipomoea purpurea, 504 h, 320 g/ha, read-out: Post-emergence effect against PHBPU in %
[3] = Tripleurospermum inodorum, 504 h, 320 g/ha, read-out: Post-emergence effect against MATIN in %
[4] = Viola tricolor, 504 h, 320 g/ha, read-out: Post-emergence effect against VIOTR in %
[5] = Veronica persica, 504 h, 320 g/ha, read-out: Post-emergence effect against VERPE in %
[6] = Setaria viridis, 504 h, read-out: Post-emergence effect against SETVI in %
[7] = Amaranthus retroflexus, 504 h, 320 g/ha, read-out: Post-emergence effect against AMARE
[8] = Digitaria sanguinalis, 504 h, 320 g/ha, read-out: Post-emergence effect against DIGSA

| SMILES | Post-emergence effect against ABUTH (ABUTH; 80 g/ha) [%] | Post-emergence effect against ABUTH (ABUTH; 320 g/ha) [%] | Post-emergence effect against ECHCG (ECHCG) [%] | Post-emergence effect against ECHCG in % (ECHCG; 80 g/ha) [%] | Post-emergence effect against ECHCG in % (ECHCG; 320 g/ha) [%] | Post-emergence effect at 20 g/ha against TRZAS in % (TRZAS) [%] | Post-emergence effect against TRZAS (TRZAS; 80 g/ha) [%] | Post-emergence effect against TRZAS (TRZAS; 320 g/ha) [%] | Post-emergence effect against PHBPU in % (PHBPU; 80 g/ha) [%] | Post-emergence effect against PHBPU in % (PHBPU; 320 g/ha) [%] | Post-emergence effect against MATIN in % (MATIN; 80 g/ha) [%] | Post-emergence effect against MATIN in % (MATIN; 320 g/ha) [%] | Post-emergence effect against VIOTR in % (VIOTR; 80 g/ha) [%] | Post-emergence effect against VIOTR in % (VIOTR; 320 g/ha) [%] | Post-emergence effect against VERPE in % (VERPE; 80 g/ha) [%] | pest or weed control at 320 g/ha (ECHCG; [1]) [%] | percent crop injury (phytotoxicity) to wheat, post-emergence at 20 g/ha (TRZAS) [%] | pest or weed control at 320 g/ha (PHBPU; [2]) [%] | pest or weed control at 320 g/ha (VIOTR; [4]) [%] | pest or weed control at 320 g/ha (AVEFA) [%] | other results |
| --- | --- | --- | --- | --- | --- | --- | --- | --- | --- | --- | --- | --- | --- | --- | --- | --- | --- | --- | --- | --- | --- |
| COC(=O)CCOC(=O)C(OC)Oc1nn(-c2cccc(C)c2F)c(-c2ccc(F)nc2)c1Br (stereo not shown) [Example I-95] | 80 | 90 | 80 | 90 | 100 | 0 | 0 | 0 | 90 | 90 | 80 | 80 | 80 | 90 | 80 | – | – | – | – | – | Post-emergence effect against VERPE in % (VERPE; 320 g/ha): 90%; Post-emergence effect against SETVI in % (SETVI): 90%; Post-emergence effect against AMARE (AMARE; 80 g/ha): 80%; Post-emergence effect against AMARE (AMARE; 320 g/ha): 90% |
| CCOC(=O)C(OC)Oc1nn(-c2cccc(C)c2F)c(-c2ccc(F)nc2)c1Br (stereo not shown) [Example I-94] | 80 | 90 | 80 | 100 | 100 | 0 | 10 | 20 | 90 | 90 | 80 | 90 | 80 | 90 | 80 | – | – | – | – | – | Post-emergence effect against PHBPU in % (PHBPU; 20 g/ha): 80%; Post-emergence effect against VERPE in % (VERPE; 320 g/ha): 90%; Post-emergence effect against AVEFA (AVEFA): 80%; Post-emergence effect against SETVI in % (SETVI): 90%; Post-emergence effect against AMARE (AMARE; 80 g/ha): 80%; Post-emergence effect against AMARE (AMARE; 320 g/ha): 90%; Post-emergence effect against DIGSA (DIGSA; 320 g/ha): 80% |
| CCOC(=O)C(OC)Oc1nn(-c2ccccc2F)c(-c2ccc(F)nc2)c1Br (stereo not shown) [Example I-22] | – | – | – | – | – | – | – | – | – | – | – | – | – | – | – | 90 | 20 | 90 | 80 | 80 | pest or weed control at 320 g/ha (MATIN; [3]): 90%; pest or weed control at 80 g/ha (VERPE; Veronica persica, 504 h, 80 g/ha, read-out: Post-emergence effect against VERPE in %): 90%; pest or weed control at 320 g/ha (VERPE; [5]): 90%; pest or weed control at 320 g/ha (ALOMY): 90%; pest or weed control at 320 g/ha (SETVI; [6]): 90%; pest or weed control at 320 g/ha (AMARE; [7]): 90%; plant injury at 20 g/ha (ZEAMX): 20%; plant injury at 80 g/ha (ZEAMX): 20%; pest or weed control at 320 g/ha (DIGSA; [8]): 80% |
| COC(Oc1nn(-c2ncccc2F)c(-c2ccc(F)nc2)c1C(F)(F)F)C(=O)O (stereo not shown) [Example I-57] | – | – | – | – | – | – | – | – | – | – | – | – | – | – | – | 90 | 0 | 80 | 80 | 80 | pest or weed control at 320 g/ha (KCHSC): 90%; pest or weed control at 320 g/ha (POLCO): 80%; plant injury at 20 g/ha (ZEAMX): 0%; plant injury at 80 g/ha (ZEAMX): 0%; plant injury at 320 g/ha (ZEAMX; 320 g/ha, read-out: Post-emergence effect at 320 g/ha against ZEAMX in %): 0% |
| COC(=O)C(OC)Oc1nn(-c2cccc(Cl)c2F)c(-c2cncc(F)c2)c1Cl (stereo not shown) [Example I-16, Methyl {[4-chloro-1-(3-chloro-2-fluorophenyl)-5-(5-fluoropyridin-3-yl)-1H-pyrazol-3-yl]oxy}(methoxy)acetate] | – | – | – | – | – | – | – | – | – | – | – | – | – | – | – | 90 | 10 | 90 | 90 | 90 | pest or weed control at 80 g/ha (ABUTH; Abutilon theophrasti, 504 h, 80 g/ha, read-out: Post-emergence effect against ABUTH): 90%; pest or weed control at 320 g/ha (ABUTH; Abutilon theophrasti, 504 h, 320 g/ha, read-out: Post-emergence effect against ABUTH): 90%; pest or weed control at 80 g/ha (ECHCG; Echinochloa crus-galli, 504 h, 80 g/ha, read-out: Post-emergence effect against ECHCG in %): 90%; pest or weed control at 20 g/ha (PHBPU; Ipomoea purpurea, 504 h, 20 g/ha, read-out: Post-emergence effect against PHBPU in %): 80%; pest or weed control at 80 g/ha (PHBPU; Ipomoea purpurea, 504 h, 80 g/ha, read-out: Post-emergence effect against PHBPU in %): 90%; pest or weed control at 80 g/ha (MATIN; Tripleurospermum inodorum, 504 h, 80 g/ha, read-out: Post-emergence effect against MATIN in %): 80%; pest or weed control at 320 g/ha (MATIN; [3]): 90%; pest or weed control at 20 g/ha (VIOTR; Viola tricolor, 504 h, 20 g/ha, read-out: Post-emergence effect against VIOTR in %): 80%; pest or weed control at 80 g/ha (VIOTR; Viola tricolor, 504 h, 80 g/ha, read-out: Post-emergence effect against VIOTR in %): 80%; pest or weed control at 320 g/ha (VERPE; [5]): 80%; pest or weed control at 320 g/ha (ALOMY): 90%; pest or weed control at 80 g/ha (SETVI; Setaria viridis, 504 h, 80 g/ha, read-out: Post-emergence effect against SETVI in %): 80%; pest or weed control at 320 g/ha (SETVI; [6]): 80%; pest or weed control at 80 g/ha (AMARE; Amaranthus retroflexus, 504 h, 80 g/ha, read-out: Post-emergence effect against AMARE): 80%; pest or weed control at 320 g/ha (AMARE; [7]): 80%; pest or weed control at 320 g/ha (POLCO): 80%; pest or weed control at 80 g/ha (DIGSA; Digitaria sanguinalis, 504 h, 80 g/ha, read-out: Post-emergence effect against DIGSA): 80%; pest or weed control at 320 g/ha (DIGSA; [8]): 90% |
